Measured values as given in patent US10058550B2, “Methods of treating heart failure” (priority 2015, dated 2018).
pEC50: −log10 of the molar value.

Target: human APJ receptor (Homo sapiens (Human), UniProt P35414)
Assay: biochemical
Assay type: biochemical
Details: read-out: Activity hAPJ SPA EC50 IP
How it was run: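 Agonist-stimulated [35S]GTPγS (0.2 nM) binding was read by SPA after 90 min at room temperature. Buffer: 20 mM HEPES pH 7.5 with 5 mM MgCl2, 200 mM NaCl, 3 μM GDP, 0.1% BSA; membranes were from a stable human APJ CHO line. EC50 values are averages of independent runs, fitted by non-linear regression.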

human APJ receptor, sequence (P35414 whole entry): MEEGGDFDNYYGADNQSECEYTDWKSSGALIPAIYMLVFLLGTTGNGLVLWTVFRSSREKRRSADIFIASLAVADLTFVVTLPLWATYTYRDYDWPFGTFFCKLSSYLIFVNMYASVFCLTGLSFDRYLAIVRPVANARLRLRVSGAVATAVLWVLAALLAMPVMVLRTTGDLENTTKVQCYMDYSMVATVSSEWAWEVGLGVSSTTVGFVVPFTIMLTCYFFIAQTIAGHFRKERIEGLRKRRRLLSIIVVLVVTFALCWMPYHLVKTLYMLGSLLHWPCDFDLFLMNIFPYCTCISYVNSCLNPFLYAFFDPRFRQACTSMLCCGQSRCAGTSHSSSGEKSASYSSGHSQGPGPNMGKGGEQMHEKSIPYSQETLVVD

Row | SMILES | pEC50
1 | COc1cccc(-c2nnc(NS(=O)(=O)[C@@H](C)[C@H](C)c3ncc(Cl)cn3)n2-c2c(OC)ncnc2OC)n1 [Example 710.0, (2S,3R)-3-(5-chloro-2-pyrimidinyl)-N-(4-(4,6-dimethoxy-5-pyrimidinyl)-5-(6-methoxy-2-pyridinyl)-4H-1,2,4-triazol-3-yl)-2-butanesulfonamide] | 9.68
2 | COc1ncnc(OC)c1-n1c(NS(=O)(=O)[C@@H](C)[C@@H](OC(C)C)c2ncc(C)cn2)nnc1-c1cncc(C)c1 [Example 829.0, (1S,2S)-N-(4-(4,6-dimethoxy-5-pyrimidinyl)-5-(5-methyl-3-pyridinyl)-4H-1,2,4-triazol-3-yl)-1-(1-methylethoxy)-1-(5-methyl-2-pyrimidinyl)-2-propanesulfonamide] | 8.02
3 | COc1cccc(OC)c1-n1c(NS(=O)(=O)[C@H](C)[C@@H](OC)c2ncc(Cl)cn2)nnc1-c1cccnc1 [Example 592.0, (1S,2R)-1-(5-chloro-2-pyrimidinyl)-N-(4-(2,6-dimethoxyphenyl)-5-(3-pyridinyl)-4H-1,2,4-triazol-3-yl)-1-methoxy-2-propanesulfonamide] | 8.00
4 | COc1cccc(OC)c1-n1c(NS(=O)(=O)[C@@H](C)[C@H](OC)C2CC(C)(C)C2)nnc1-c1cncc(C)c1 (single isomer, unassigned) [Example 726.0] | 8.12
5 | COc1cccc(OC)c1-n1c(NS(=O)(=O)[C@@H](C)[C@H](C)c2cnc(C)cn2)nnc1-c1ccccn1 [Example 774.0, (2S,3R)-N-(4-(2,6-dimethoxyphenyl)-5-(2-pyridinyl)-4H-1,2,4-triazol-3-yl)-3-(5-methyl-2-pyrazinyl)-2-butanesulfonamide] | 8.09
6 | COc1cccc(-c2nnc(NS(=O)(=O)C[C@H](O)c3ccc(Cl)cc3)n2-c2c(OC)cccc2OC)n1 (mixture of isomers) [Example 264.0, (R)-2-(4-chlorophenyl)-N-(4-(2,6-dimethoxyphenyl)-5-(6-methoxypyridin-2-yl)-4H-1,2,4-triazol-3-yl)-2-hydroxyethanesulfonamide and (S)-2-(4-chlorophenyl)-N-(4-(2,6-dimethoxyphenyl)-5-(6-methoxypyridin-2-yl)-4H-1,2,4-triazol-3-yl)-2-hydroxyethanesulfonamide] | 9.47
7 | CNc1cccc(-c2nnc(NS(=O)(=O)[C@@H](C)[C@H](OC)c3ncc(C)cn3)n2-c2c(OC)cccc2OC)n1 [Example 195.0, (1R,2S)-N-(4-(2,6-dimethoxyphenyl)-5-(6-(methylamino)pyridin-2-yl)-4H-1,2,4-triazol-3-yl)-1-methoxy-1-(5-methylpyrimidin-2-yl)propane-2-sulfonamide] | 9.46
8 | COc1cccc(OC)c1-n1c(NS(=O)(=O)[C@@H](C)Cc2ncc(F)cn2)nnc1-c1cnccc1C (single isomer, unassigned) [Example 218.0] | 6.52
9 | COc1cnc([C@@H](OC)[C@H](C)S(=O)(=O)Nc2nnc(-c3cncc(C)c3)n2-c2c(OC)cccc2OC)nc1 [Example 57.0, (1R,2S)-N-(4-(2,6-dimethoxyphenyl)-5-(5-methyl-3-pyridinyl)-4H-1,2,4-triazol-3-yl)-1-methoxy-1-(5-methoxy-2-pyrimidinyl)-2-propanesulfonamide] | 9.26
10 | COc1cccc(-c2nnc(NS(=O)(=O)CC3CC3)n2-c2c(OC)cccc2OC)n1 [Example 832.0, 1-cyclopropyl-N-(4-(2,6-dimethoxyphenyl)-5-(6-methoxy-2-pyridinyl)-4H-1,2,4-triazol-3-yl)methanesulfonamide] | 6.96
11 | COc1cccc(-c2nnc(NS(=O)(=O)[C@@H]3CCCN(c4ncc(Cl)cn4)C3)n2-c2c(OC)ncnc2OC)n1 [Example 831.0, (3R)-1-(5-chloro-2-pyrimidinyl)-N-(4-(4,6-dimethoxy-5-pyrimidinyl)-5-(6-methoxy-2-pyridinyl)-4H-1,2,4-triazol-3-yl)-3-piperidinesulfonamide, (3S)-1-(5-chloro-2-pyrimidinyl)-N-(4-(4,6-dimethoxy-5-pyrimidinyl)-5-(6-methoxy-2-pyridinyl)-4H-1,2,4-triazol-3-yl)-3-piperidinesulfonamide] | 9.05
12 | CCc1cccc(-c2nnc(NS(=O)(=O)[C@@H](C)[C@H](O)c3ncc(C)cn3)n2-c2c(OC)cccc2OC)n1 [Example 175.0, (1R,2S)-N-(4-(2,6-dimethoxyphenyl)-5-(6-ethylpyridin-2-yl)-4H-1,2,4-triazol-3-yl)-1-hydroxy-1-(5-methylpyrimidin-2-yl)propane-2-sulfonamide] | 9.41
13 | COc1cccc(OC)c1-n1c(NS(=O)(=O)[C@@H](C)[C@H](OC)c2ncc(C)cn2)nnc1-c1ccccn1 [Example 629.0, (1R,2S)-N-(4-(2,6-dimethoxyphenyl)-5-(2-pyridinyl)-4H-1,2,4-triazol-3-yl)-1-methoxy-1-(5-methyl-2-pyrimidinyl)-2-propanesulfonamide] | 8.80
14 | COc1cccc(OC)c1-n1c(NS(=O)(=O)[C@@H](C)[C@H](O)c2nc(C)c(C)s2)nnc1-c1cncc(C)c1 (single isomer, unassigned) [Example 296.0] | 8.33
15 | COc1cccc(OC)c1-n1c(NS(=O)(=O)[C@@H](C)[C@H](O)c2cnc(C)cn2)nnc1-c1cccnc1 [Example 615.0, (1R,2S)—N-(4-(2,6-dimethoxyphenyl)-5-(3-pyridinyl)-4H-1,2,4-triazol-3-yl)-1-hydroxy-1-(5-methyl-2-pyrazinyl)-2-propanesulfonamide] | 7.19
16 | COc1cccc(OC)c1-n1c(NS(=O)(=O)[C@@H](C)[C@H](OC)c2ncc(C)cn2)nnc1-c1cccc(OCCO)n1 [Example 188.0, (1R,2S)-N-(4-(2,6-dimethoxyphenyl)-5-(6-(2-hydroxyethoxy)pyridin-2-yl)-4H-1,2,4-triazol-3-yl)-1-methoxy-1-(5-methylpyrimidin-2-yl)propane-2-sulfonamide] | 9.02
17 | COc1cnc([C@@H](OC)[C@H](C)S(=O)(=O)Nc2nnc(-c3cccc(OC)n3)n2-c2c(OC)cccc2OC)nc1 [Example 49.0, (1R,2S)-N-(4-(2,6-dimethoxyphenyl)-5-(6-methoxy-2-pyridinyl)-4H-1,2,4-triazol-3-yl)-1-methoxy-1-(5-methoxy-2-pyrimidinyl)-2-propanesulfonamide] | 9.77
18 | COc1cccc(OC)c1-n1c(NS(=O)(=O)C[C@H](O)c2ccc(C#N)cc2S(C)(=O)=O)nnc1-c1cncc(C)c1 (single isomer, unassigned) [Example 492.0, (2R)-2-(4-cyano-2-(methylsulfonyl)phenyl)-N-(4-(2,6-dimethoxyphenyl)-5-(5-methyl-3-pyridinyl)-4H-1,2,4-triazol-3-yl)-2-hydroxyethanesulfonamide or (2S)-2-(4-cyano-2-(methylsulfonyl)phenyl)-N-(4-(2,6-dimethoxyphenyl)-5-(5-methyl-3-pyridinyl)-4H-1,2,4-triazol-3-yl)-2-hydroxyethanesulfonamide] | 9.21
19 | COc1cccc(-c2nnc(NS(=O)(=O)[C@H]3CCCO[C@H]3c3ncc(C)cn3)n2-c2c(OC)cccc2OC)n1 (mixture of isomers) [Example 648.0] | 7.48
20 | COc1cccc(OC)c1-n1c(NS(=O)(=O)[C@@H](C)[C@H](C)c2cnc(C)cn2)nnc1-c1cccnc1 [Example 198.0, (2S,3R)-N-(4-(2,6-dimethoxyphenyl)-5-(pyridin-3-yl)-4H-1,2,4-triazol-3-yl)-3-(5-methylpyrazin-2-yl)butane-2-sulfonamide] | 8.96
21 | COc1cnc([C@@H](O)[C@H](C)S(=O)(=O)Nc2nnc(-c3cncc(C)c3)n2-c2c(OC)cccc2OC)cn1 (single isomer, unassigned) [Example 305.0] | 9.41
22 | COc1cccc(-c2nnc(NS(=O)(=O)[C@@H](C)[C@@H](O)C3CC(F)(F)C3)n2-c2c(OC)cccc2OC)n1 (single isomer, unassigned) [Example 722.0] | 8.77
23 | COc1cccc(-c2nnc(NS(=O)(=O)[C@@H]3CCCN(c4ncc(Cl)cn4)C3)n2-c2c(OC)ncnc2OC)n1 (single isomer, unassigned) [Example 830.0] | 7.85
24 | COc1cccc(-c2nnc(NS(=O)(=O)[C@H](C)[C@@H](OCCO)c3ncc(C)cn3)n2-c2c(OC)cccc2OC)n1 (single isomer, unassigned) [Example 415.0, (1S,2R)—N-(4-(2,6-dimethoxyphenyl)-5-(6-methoxypyridin-2-yl)-4H-1,2,4-triazol-3-yl)-1-(2-hydroxyethoxy)-1-(5-methylpyrimidin-2-yl)propane-2-sulfonamide or (1R,2S)—N-(4-(2,6-dimethoxyphenyl)-5-(6-methoxypyridin-2-yl)-4H-1,2,4-triazol-3-yl)-1-(2-hydroxyethoxy)-1-(5-methylpyrimidin-2-yl)propane-2-sulfonamide] | 8.05
25 | COc1cccc(OC)c1-n1c(NS(=O)(=O)[C@H](C)[C@H](O)c2ncc(F)cn2)nnc1-c1cncc(C)c1 (single isomer, unassigned) [Example 358.0, (1R,2R)—N-(4-(2,6-dimethoxyphenyl)-5-(5-methylpyridin-3-yl)-4H-1,2,4-triazol-3-yl)-1-(5-fluoropyrimidin-2-yl)-1-hydroxypropane-2-sulfonamide or (1S,2S)—N-(4-(2,6-dimethoxyphenyl)-5-(5-methylpyridin-3-yl)-4H-1,2,4-triazol-3-yl)-1-(5-fluoropyrimidin-2-yl)-1-hydroxypropane-2-sulfonamide] | 7.16
26 | COc1cccc(OC)c1-n1c(NS(=O)(=O)[C@H](C)[C@@H](OC)c2ncc(Cl)cn2)nnc1-c1cncc(C)c1 (single isomer, unassigned) [Example 558.0] | 7.52
27 | CO[C@H](c1ncc(C)cn1)[C@H](C)S(=O)(=O)Nc1nnc(-c2cncc(C)c2)n1-c1c(OC(F)F)cccc1OC(F)F [Example 670.0, (1R,2S)-N-(4-(2,6-bis(difluoromethoxy)phenyl)-5-(5-methyl-3-pyridinyl)-4H-1,2,4-triazol-3-yl)-1-methoxy-1-(5-methyl-2-pyrimidinyl)-2-propanesulfonamide] | 9.26
